Data from patent US10941152B2, “Pyrazole compounds as modulators of FSHR and uses thereof” (TOCOPHERX, INC., priority 2014, dated 2021).

Columns and labels:
[1] = target: T1, follicle-stimulating hormone (FSH) receptor (Rattus norvegicus, UniProt P20395); assay: Rat granulosa EC50 FSH (Assay B); assay type: cell-based
T1 construct: endogenous in cells; host or cells: rat granulosa cells
T1 sequence (P20395 18-692): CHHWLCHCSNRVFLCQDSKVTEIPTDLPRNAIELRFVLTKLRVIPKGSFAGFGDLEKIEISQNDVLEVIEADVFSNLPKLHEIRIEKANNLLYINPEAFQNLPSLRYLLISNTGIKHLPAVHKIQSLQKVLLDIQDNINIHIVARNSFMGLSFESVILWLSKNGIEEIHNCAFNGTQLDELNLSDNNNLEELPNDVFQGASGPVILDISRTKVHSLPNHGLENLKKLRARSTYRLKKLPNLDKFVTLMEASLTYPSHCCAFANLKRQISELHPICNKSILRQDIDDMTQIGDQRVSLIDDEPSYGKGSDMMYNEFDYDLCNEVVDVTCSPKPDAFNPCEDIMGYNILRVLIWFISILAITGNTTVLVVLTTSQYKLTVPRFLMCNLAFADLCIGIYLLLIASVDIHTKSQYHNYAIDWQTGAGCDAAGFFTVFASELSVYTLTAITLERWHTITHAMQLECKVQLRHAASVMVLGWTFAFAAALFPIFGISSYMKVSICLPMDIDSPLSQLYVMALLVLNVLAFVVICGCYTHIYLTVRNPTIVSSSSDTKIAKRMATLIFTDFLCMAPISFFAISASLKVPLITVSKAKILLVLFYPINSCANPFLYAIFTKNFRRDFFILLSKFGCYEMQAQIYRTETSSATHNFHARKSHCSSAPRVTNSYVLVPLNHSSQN
Procedure: Example 25. Rat granulosa EC50 FSH (Assay B)
The assay was performed pursuant to the teaching of Yanofsky et al. (2006) Allosteric activation of the follicle-stimulating hormone (FSH) receptor by selective, nonpeptide agonists (JBC 281(19): 13226-13233, which is incorporated by reference in the disclosure of the invention).

FSHR = target: T2, FSHR (Homo sapiens, UniProt P23945); assay: EC50 of cyclic AMP production in CHO FSHR cells + EC20 FSH (Assay A); assay type: cell-based; settings: cyclic AMP production in CHO FSHR cells + EC20 FSH (0.265 pM), HTRF
T2 construct: expressed in transfected cells; host or cells: CHO (Cho-FSHR-LUC-1-1-43)
T2 sequence (P23945 18-695): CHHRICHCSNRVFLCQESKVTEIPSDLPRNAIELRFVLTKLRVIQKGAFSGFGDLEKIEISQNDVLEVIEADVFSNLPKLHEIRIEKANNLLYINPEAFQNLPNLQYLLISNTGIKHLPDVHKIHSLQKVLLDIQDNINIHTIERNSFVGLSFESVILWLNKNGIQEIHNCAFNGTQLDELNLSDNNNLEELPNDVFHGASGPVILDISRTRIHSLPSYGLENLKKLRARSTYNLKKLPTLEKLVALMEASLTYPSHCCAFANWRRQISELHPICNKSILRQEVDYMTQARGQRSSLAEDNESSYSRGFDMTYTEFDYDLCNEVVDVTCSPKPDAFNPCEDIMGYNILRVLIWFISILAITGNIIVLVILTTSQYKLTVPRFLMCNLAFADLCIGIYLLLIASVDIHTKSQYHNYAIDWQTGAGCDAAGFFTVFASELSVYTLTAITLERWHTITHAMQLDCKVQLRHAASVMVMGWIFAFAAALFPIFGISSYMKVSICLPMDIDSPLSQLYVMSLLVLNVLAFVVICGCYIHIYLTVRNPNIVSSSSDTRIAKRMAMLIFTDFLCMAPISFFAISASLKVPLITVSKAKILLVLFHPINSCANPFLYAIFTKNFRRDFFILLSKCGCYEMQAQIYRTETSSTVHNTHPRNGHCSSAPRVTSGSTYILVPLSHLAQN
How it was run: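 cAMP was detected by HTRF as the 665/620 nm ratio. The CHO-FSHR cells had first been exposed for 1 h at 37° C to test compound together with 0.265 pM FSH (EC20) and 200 μM IBMX. Responses are given as percent of the FSH standard maximum.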

Row | Structure (SMILES) | EC50 [1] [µM] | EC50 (FSHR) [µM]
1 | COc1cc2c(cc1-c1cccc(C(=O)O)c1)-c1c(c(C(=O)N(C)C(C)(C)C)nn1-c1cc(Cl)cc(Cl)c1)CO2 [Compound 179] | 0.101 to 0.5 | 0.01 to 0.1
2 | COc1cc2c(cc1-c1ccn(C)n1)-c1c(c(C(=O)N3CCN(C#N)CC3(C)C)nn1-c1ccsc1)CO2 [Compound 184, 4-(7-methoxy-8-(1-methyl-1H-pyrazol-3-yl)-1-(thiophen-3-yl)-1,4-dihydrochromeno[4,3-c]pyrazole-3-carbonyl)-3,3-dimethylpiperazine-1-carbonitrile] | 0.01 to 0.1 | < 0.01
3 | COc1cc2c(cc1-c1cc(=O)[nH][nH]1)-c1c(c(C(=O)N(C)C(C)(C)C)nn1-c1ccsc1)CO2 [Compound 185, N-tert-butyl-7-methoxy-N-methyl-8-(5-oxo-2,5-dihydro-1H-pyrazol-3-yl)-1-(thiophen-3-yl)-1,4-dihydrochromeno[4,3-c]pyrazole-3-carboxamide] | 0.101 to 0.5 | 0.01 to 0.1
4 | COc1cc2c(cc1-c1cc(=O)[nH]n1C)-c1c(c(C(=O)N(C)C(C)(C)C)nn1-c1ccsc1)CO2 [Compound 187] | 0.101 to 0.5 | < 0.01
5 | COc1cc2c(cc1-c1cc(C)cnc1OC)-c1c(c(C(=O)N(C)C(C)(C)C)nn1-c1cc(Cl)cc(Cl)c1)CO2 [Compound 189, N-tert-butyl-1-(3,5-dichlorophenyl)-7-methoxy-8-(2-methoxy-5-methylpyridin-3-yl)-N-methyl-1,4-dihydrochromeno[4,3-c]pyrazole-3-carboxamide] | 0.101 to 0.5 | 0.01 to 0.1
6 | COc1cc2c(cc1-c1cnn(CC(O)CO)c1)-c1c(c(C(=O)N(C)C(C)(C)C)nn1-c1cc(Cl)cc(Cl)c1)CO2 (stereo not shown) [Compound 190, N-tert-butyl-1-(3,5-dichlorophenyl)-8-(1-(2,3-dihydroxypropyl)-1H-pyrazol-4-yl)-7-methoxy-N-methyl-1,4-dihydrochromeno[4,3-c]pyrazole-3-carboxamide] | > 0.5 | 0.01 to 0.1
7 | COc1cc2c(cc1OC(C)CO)-c1c(c(C(=O)N(C)C(C)(C)C)nn1-c1ccsc1)CO2 (stereo not shown) [Compound 193, N-tert-butyl-8-(1-hydroxypropan-2-yloxy)-7-methoxy-N-methyl-1-(thiophen-3-yl)-1,4-dihydrochromeno[4,3-c]pyrazole-3-carboxamide] | 0.101 to 0.5 | 0.01 to 0.1
8 | COc1cc2c(cc1-c1c[nH]nn1)-c1c(c(C(=O)N(C)C(C)(C)C)nn1-c1ccsc1)CO2 [Compound 194, N-tert-butyl-7-methoxy-N-methyl-1-(thiophen-3-yl)-8-(1H-1,2,3-triazol-4-yl)-1,4-dihydrochromeno[4,3-c]pyrazole-3-carboxamide] | > 0.5 | < 0.01
9 | COc1cc2c(cc1-c1cccc(CO)c1F)-c1c(c(C(=O)N(C)C(C)(C)C)nn1-c1cc(Cl)cc(Cl)c1)CO2 [Compound 195, N-tert-butyl-1-(3,5-dichlorophenyl)-8-(2-fluoro-3-(hydroxymethyl)phenyl)-7-methoxy-N-methyl-1,4-dihydrochromeno[4,3-c]pyrazole-3-carboxamide] | 0.01 to 0.1 | 0.01 to 0.1
10 | CCOC(=O)C1CC1c1cc2c(cc1OC)OCc1c(C(=O)N(C)C(C)(C)C)nn(-c3cc(Cl)cc(Cl)c3)c1-2 (stereo not shown) [Compound 196] | 0.101 to 0.5 | < 0.01

Results, then the compound that gave them:

Row | EC50 [1] [µM] | EC50 (FSHR) [µM] | Structure (SMILES)
11 | 0.01 to 0.1 | < 0.01 | COc1cc2c(cc1-c1cc(C(N)=O)c[n+]([O-])c1)-c1c(c(C(=O)N3CCOCC3(C)C)nn1-c1cc(F)cc(F)c1)CO2 [Compound 176]
12 | 0.01 to 0.1 | < 0.01 | COc1cc2c(cc1-c1cc(C#N)c[n+]([O-])c1)-c1c(c(C(=O)N3CCOCC3(C)C)nn1-c1cc(Cl)cc(Cl)c1)CO2 [Compound 177]
13 | < 0.01 | < 0.01 | COc1cc2c(cc1-c1cncc(C(=O)O)c1)-c1c(c(C(=O)N3CCOCC3(C)C)nn1-c1cc(Cl)cc(Cl)c1)CO2 [Compound 178, 5-(1-(3,5-dichlorophenyl)-3-(3,3-dimethylmorpholine-4-carbonyl)-7-methoxy-1,4-dihydrochromeno[4,3-c]pyrazol-8-yl)nicotinic acid]
14 | 0.01 to 0.1 | < 0.01 | COc1cc2c(cc1-c1cnn(C(N)=O)c1)-c1c(c(C(=O)N(C)C(C)(C)C)nn1-c1cc(Cl)cc(Cl)c1)CO2 [Compound 181, N-tert-butyl-8-(1-carbamoyl-1H-pyrazol-4-yl)-1-(3,5-dichlorophenyl)-7-methoxy-N-methyl-1,4-dihydrochromeno[4,3-c]pyrazole-3-carboxamide]
15 | < 0.01 | < 0.01 | COc1cc2c(cc1-c1cncc(NC(C)=O)c1)-c1c(c(C(=O)N(C)C(C)(C)C)nn1-c1cc(Cl)cc(Cl)c1)CO2 [Compound 182, 8-(5-acetamidopyridin-3-yl)-N-tert-butyl-1-(3,5-dichlorophenyl)-7-methoxy-N-methyl-1,4-dihydrochromeno[4,3-c]pyrazole-3-carboxamide]
16 | 0.01 to 0.1 | < 0.01 | COc1cc2c(cc1-c1cncc(NC(N)=O)c1)-c1c(c(C(=O)N(C)C(C)(C)C)nn1-c1cc(Cl)cc(Cl)c1)CO2 [Compound 183, N-tert-butyl-1-(3,5-dichlorophenyl)-7-methoxy-N-methyl-8-(5-ureidopyridin-3-yl)-1,4-dihydrochromeno[4,3-c]pyrazole-3-carboxamide]
17 | 0.101 to 0.5 | < 0.01 | CCN(C(=O)c1nn(-c2cc(Cl)cc(Cl)c2)c2c1COc1cc(OC)c(-c3ccn(C)n3)cc1-2)S(=O)(=O)CC [Compound 188, 1-(3,5-dichlorophenyl)-N-ethyl-N-(ethylsulfonyl)-7-methoxy-8-(1-methyl-1H-pyrazol-3-yl)-1,4-dihydrochromeno[4,3-c]pyrazole-3-carboxamide]
18 | 0.101 to 0.5 | < 0.01 | COc1cc2c(cc1C1CC1C(N)=O)-c1c(c(C(=O)N(C)C(C)(C)C)nn1-c1cc(Cl)cc(Cl)c1)CO2 (stereo not shown) [Compound 199]
19 | 0.101 to 0.5 | < 0.01 | COc1cc2c(cc1-c1nc[nH]n1)-c1c(c(C(=O)N(C)C(C)(C)C)nn1-c1ccsc1)CO2 [Compound 207, N-tert-butyl-7-methoxy-N-methyl-1-(thiophen-3-yl)-8-(1H-1,2,4-triazol-3-yl)-1,4-dihydrochromeno[4,3-c]pyrazole-3-carboxamide]
20 | > 0.5 | 0.01 to 0.1 | COc1cc2c(cc1-c1ncnn1C)-c1c(c(C(=O)N(C)C(C)(C)C)nn1-c1ccsc1)CO2 [Compound 208]
